Legend:
[1] = Solubility in aqueous medium / pH solutions; type: physicochemical; conditions: for solubility upon addition of pH solutions: final DMSO concentration 1%
BV2 microglia [2] = assay: LDH cytotoxicity assay on BV2 microglia; type: cell-based, mouse; conditions: for cytotoxicity (LDH release): 2 hour, any tested doses (1, 5, 10 μM), BV2
Protocol: The dried fluorescent probes powders were resuspended in cell grade DMSO to prepare 5 mM stock solutions. This stock was used to make a 1, 5, or 10 μM dilution of the probe in cell culture media. The diluted probe solutions were filtered through 0.22 µm filters before adding to the cells.
The cytotoxicity of the fluorescent probes was determined using the Invitrogen™ CyQUANT™ LDH Cytotoxicity Assay kit which measures the release of Lactate dehydrogenase (LDH) from the dead and dying cells. The assay was performed per the manufacturer's protocol. Briefly, BV2 cells (5000 cells/100 μL/well) were seeded in a 96 well plate and cultured for 24 hours at 37° C. in a 5% CO2 incubator. After 24 hours, the media was removed, and the cells were treated with 1, 5, or 10 μM of the probes for 2 or 24 hours of incubation. Three additional wells were treated with the given lysis buffer for 45 minutes (positive control). After the corresponding incubation period, the total LDH release was measured using a fluorescent plate reader. The cells without any probe treatment correspond to spontaneous LDH release and were taken as negative control and the cells treated with the lysis buffer correspond to maximum LDH release. The percentage cytotoxicity of the probes was determined as follows: […]

primary mouse microglia [3] = assay: Confocal imaging, localization of probes in primary microglia; type: cell-based; conditions: 10 μM probe 2 hours, co-staining LysoTracker / MitoLite / DAPI
Protocol: A detailed protocol for the isolation and culture of primary microglia from adult mouse brains is previously described^2. Briefly, CD11^+ primary microglia were isolated from adult C57BL/6 mice aged 5-7 months of age (both male and female sexes) and cultured as follows. Mice were euthanized with CO2 following the PACUC guidelines, perfused brains were removed and cut into small pieces before homogenizing them in DPBS++with 0.4% DNase-I on the tissue dissociator at 37° C. After filtering the cells through a 70 μm filter, myelin was removed two times, first using gradient centrifugation with Percoll PLUS reagent followed by the use of myelin removal beads on the magnetic column separators. After myelin removal, CD11^+ cells were selected from the single cell suspension using the CD11^+ beads as per the manufacturer's instructions. The CD11^+ cells were finally resuspended in microglia growth media, further diluted in TIC (TGF-β, IL-34, and cholesterol containing) media containing 2% FBS before seeding 0.1×10^6 cells/500 μL/well of a 24-well plate. The cells were maintained at 37° C. and 10% CO2 with half-media change every other day until the day of compound treatment (around 12-14 div). For confocal imaging experiments, around 50,000 cells/2 mL cells were sub-cultured at the center of 35 mm glass-bottom imaging dishes (FluoroDish™ #FD35).
The localization of the fluorescent probes was visualized using confocal microscopy. The cells were incubated with 10 μM probe for 2 hours and then the media was aspirated. The cells were then incubated with 100 nM LysoTracker (1 mM stock from Thermo #L7528) or with 0.5x MitoLite (1000-fold dilution from 500x stock of AAT Bioquest #22678) for 1.5 hours. The media was aspirated, and the cells were fixed with 4% paraformaldehyde for 10 mins followed by nuclear staining with 1 μM/mL DAPI for 5 mins. For BV2 microglia grown on glass coverslips, the coverslips were removed from the wells and transferred to glass slides with a drop of anti-fade reagent (Thermo Fisher Scientific #P36930). […]

[4] = Absorption and fluorescence spectra at different pH solutions, pKa; type: physicochemical; conditions: for pKa: PBS buffer at varying pH, 1% (v/v) DMSO, probe 10 μM, room temperature; for emission maximum: excitation 480 nm; for emission maximum / absorption maximum: pH solutions of phosphate buffer, 1% DMSO; for pH at which high fluorescence is shown: pH buffer solutions
Protocol: Spectrum recorded at room temperature in PBS buffer at varying pH with 1% (v/v) of DMSO, in all cases probe concentration=10 μM.
Next, we investigated the absorption and fluorescent properties of LysoShine 1, LysoShine 2, and MitoShine (FIG. 2). The LysoShine 1 in different pH solutions of phosphate buffer (1% DMSO in 1M PBS) has an absorption centered around 500 nm and emission maximum at 505 nm with 480 nm excitation. […] We tested the mitochondrial targeting property of MitoShine (max. absorption 505 nm, max. emission 535 nm, excitation 480 nm). […] We also tested the photophysical property of the important synthetic intermediate compound 10 (absorption maximum 505 nm, max, emission 510 nm at excitation 480 nm).

BV2 microglia [5] = assay: Confocal imaging, localization of probes in BV2 microglia; type: cell-based, mouse; conditions: co-staining LysoTracker Red DND-99 / DAPI
Protocol: BV2 mouse microglia cells were generously gifted by Dr. Linda J. Van Eldik (University of Kentucky, USA). The BV-2 cell line was developed in the lab of Dr. Elisabetta Blasi at the University of Perugia, Italy. Cells were maintained at 37° C. and 5% CO2 in DMEM/Hams F-12 50/50 Mix supplemented with 10% Fetal Bovine Serum (FBS), 1% L-Glutamine, and 1% Penicillin/Streptomycin. For imaging experiments, 70,000 cells/2 mL/well were seeded on glass coverslips (Corning #12-553-450) in 6-well plates (Corning #08-772-1B). For flow cytometry experiments, 20,000 cells/0.5 mL were seeded in 24-well plates (Corning #3526).
The localization of the fluorescent probes was visualized using confocal microscopy. The cells were incubated with 10 μM probe for 2 hours and then the media was aspirated. The cells were then incubated with 100 nM LysoTracker (1 mM stock from Thermo #L7528) or with 0.5x MitoLite (1000-fold dilution from 500x stock of AAT Bioquest #22678) for 1.5 hours. The media was aspirated, and the cells were fixed with 4% paraformaldehyde for 10 mins followed by nuclear staining with 1 μM/mL DAPI for 5 mins. For BV2 microglia grown on glass coverslips, the coverslips were removed from the wells and transferred to glass slides with a drop of anti-fade reagent (Thermo Fisher Scientific #P36930). For primary mouse microglia grown in 35 mm glass-bottom dishes, the cells were treated with a few drops of the anti-fade reagent and taken for imaging. The images were captured on a Zeiss LSM 880 Upright Confocal microscope equipped with Plan-Apochromat 20x/0.8 objective.

BV2 microglia [6] = assay: Cellular uptake of the fluorescent probes; type: in vitro ADME, mouse; conditions: BV2 microglia (FIG. 7)
Protocol: FIG. 7 describes percent uptake efficiency of the fluorescent probes in BV2 microglia. Cellular uptake of the probe at different concentrations after two hours of incubation. The % uptake efficiency was determined as the percentage of probe taken up by cells out of the total amount of probe in the initial incubation solution. Bars depict n=3 data with SD.
Cellular uptake of the florescent probes was determined in-vitro as following: BV2 cells (20,000 cells/well) were seeded in a 96 well plate and cultured overnight at 37° C. in a 5% CO2 incubator. Next day, the media was removed, and the cells were treated with 1, 5, or 10 μM of the probes for 2 hours. After incubation, the supernatant was collected, and the absorbance was recorded at the respective absorbance maxima of the probe. This was compared with absorbance of the probe in media without cells. The percent cellular uptake was calculated as percentage of […]:
% Uptake Efficiency=1-[Asupernatant×100/Aprobe]

primary mouse microglia [7] = assay: Flow cytometry analysis of probe fluorescence in live cells; type: cell-based; conditions: 10 μM, 2 hours
Description: FIGS. 3A-3E. […] Modal corresponds to a percentage of the maximum count. […] US Ctrl is unstained control. Gating strategy and flow plots with commercial dyes in supporting information.
A detailed protocol for the isolation and culture of primary microglia from adult mouse brains is previously described^2. Briefly, CD11^+ primary microglia were isolated from adult C57BL/6 mice aged 5-7 months of age (both male and female sexes) and cultured as follows. Mice were euthanized with CO2 following the PACUC guidelines, perfused brains were removed and cut into small pieces before homogenizing them in DPBS++with 0.4% DNase-I on the tissue dissociator at 37° C. After filtering the cells through a 70 μm filter, myelin was removed two times, first using gradient centrifugation with Percoll PLUS reagent followed by the use of myelin removal beads on the magnetic column separators. After myelin removal, CD11^+ cells were selected from the single cell suspension using the CD11^+ beads as per the manufacturer's instructions. […]
Primary mouse microglia were treated with 1, 5, or 10 μM fluorescent probes for 2 hours for the cells to uptake the probe. […] Around 10-20 thousand cells were gated from the live cells in order to analyze the cellular fluorescence signal corresponding to the LysoShine/Lysotracker or Mitoshine/MitoLite probes.

## CCOC(=O)C1=C(C)C2=C(c3ccc(NC(=O)CNCCN4CCOCC4)cc3)c3c(C)c(C(=O)OCC)c(C)n3[B-](F)(F)[N+]2=C1C [LysoShine 2, Diethyl 5,5-difluoro-1,3,7,9-tetramethyl-10-(4-(2-((2-morpholinoethyl)amino)acetamido)phenyl)-5H-4λ^4, 5λ^4-dipyrrolo[1,2-c:2′,1′-f][1,3,2]diaza-borinine-2,8-dicarboxylate]
[1]
  solubility upon addition of pH solutions: maintains its solubility
BV2 microglia [2]
  cytotoxicity (LDH release): did not show any cytotoxicity
Primary mouse microglia [3]
  localization of the probe within cell organelles: co-localized with the LysoTracker dye within the acidic lysosomes
[4]
  pKa: 6.0
  emission maximum: 512 nm
  pH at which high fluorescence is shown: less than 6
  absorption maximum: 500 nm
BV2 microglia [5]
  localization of the probe within cell organelles: co-colocalization

## CCOC(=O)C1=C(C)C2=C(c3ccc(N(C)C)cc3)c3c(C)c(C(=O)OCC)c(C=Cc4ccc(O)cc4)n3[B-](F)(F)[N+]2=C1C [Compound 6a, Diethyl (E)-10-(4-(dimethylamino)phenyl)-5,5-difluoro-3-(4-hydroxystyryl)-1,7,9-trimethyl-5H-414,514-dipyrrolo[1,2-c:2′,1′-f][1,3,2]diazaborinine-2,8-dicarboxylate]
[1]; aqueous medium
  solubility in aqueous medium: sparingly soluble
[4]; pH buffers, solubility affected
  fluorescence spectrum in pH buffers: did not generate a fluorescence spectrum

## CCOC(=O)C1=C(C)C2=C(c3ccc(NC(=O)CBr)cc3)c3c(C)c(C(=O)OCC)c(C)n3[B-](F)(F)[N+]2=C1C [Compound 10, Diethyl 10-(4-(2-bromoacetamido)phenyl)-5,5-difluoro-1,3,7,9-tetramethyl-5H-414,514-dipyrrolo[1,2-c:2′,1′-f][1,3,2]diazaborinine-2,8-dicarboxylate]
BV2 microglia [6]
  cell permeability: cell permeable
BV2 microglia [2]; BV2 cells
  cytotoxicity to BV2 cells: not cytotoxic
[4]
  emission maximum: 510 nm
  pH at which high fluorescence is shown: less than 3
  absorption maximum: 505 nm
BV2 microglia [5]
  localization of the probe within cell organelles: colocalized with nuclei staining dye DAPI

## CCOC(=O)C1=C(C)C2=C(c3ccc(NC(=O)CN(CC)CC)cc3)c3c(C)c(C(=O)OCC)c(C)n3[B-](F)(F)[N+]2=C1C [LysoShine 1, Diethyl 10-(4-(2-(diethylamino)acetamido)phenyl)-5,5-difluoro-1,3,7,9-tetramethyl-5H-4λ^4, 5λ^4-dipyrrolo[1,2-c:2′, 1′-f][1,3,2]diazaborinine-2,8-dicarboxylate]
Primary mouse microglia [7]
  fluorescent intensity within the cells: higher fluorescent intensity than LysoShine 2
[1]
  solubility upon addition of pH solutions: maintains its solubility
BV2 microglia [2]
  cytotoxicity (LDH release): did not show any cytotoxicity
Primary mouse microglia [3]
  localization of the probe within cell organelles: co-localized with the LysoTracker dye within the acidic lysosomes
[4]
  pKa: 5.4
  emission maximum: 505 nm
  pH at which high fluorescence is shown: 4
  absorption maximum: around 500 nm
BV2 microglia [5]
  localization of the probe within cell organelles: co-colocalization

## CCOC(=O)C1=C(C)C2=C(c3ccc(N(C)C)cc3)c3c(C)c(C(=O)OCC)c(C)n3[B-](F)(F)[N+]2=C1C [Compound 5, Diethyl 10-(4-(dimethylamino)phenyl)-5,5-difluoro-1,3,7,9-tetramethyl-5H-4λ^4, 5λ^4-dipyrrolo[1,2-c:2′,1′-f][1,3,2]diazaborinine-2,8-dicarboxylate]
[4]
  pH at which high fluorescence is shown: ≤ 2.0
